# Reference: patent US11873290B2, “Pyridazinone compounds and uses thereof” (Edgewise Therapeutics, Inc., priority 2018, dated 2024)
# Biological target: skeletal myofibrils (myosin ATPase activity)
# Test: Skeletal Myofibril ATPase Assay
# Type: biochemical
# Conditions: PK-LDH coupled, absorbance at 340 nm
# Outline: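 Skeletal myofibril ATPase measured by PK-LDH-coupled NADH depletion at 340 nm, read every 1.5–2 min for 1 h; pCa buffer with PIPES/CaCl2/EGTA, pH 7.0. Rate taken as max–min absorbance, normalised to 1% DMSO vehicle (100%) and no change (0%); IC50 from four-parameter fit, bottom ≥0.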
row,SMILES,IC50 [µM]
1,"Cc1nnc(Cn2nc(-c3ccc(OC(F)F)cc3)ccc2=O)o1 [Compound 222, 6-(4-(difluoromethoxy)phenyl)-2-((5-methyl-1,3,4-oxadiazol-2-yl)methyl)pyridazin-3(2H)-one]",10 to 100
2,"Cc1nnc(Cn2nc(-c3ccc(OC(F)F)cc3)ccc2=O)s1 [Compound 223, 6-(4-(difluoromethoxy)phenyl)-2-((5-methyl-1,3,4-thiadiazol-2-yl)methyl)pyridazin-3(2H)-one]",10 to 100
3,"Cc1cnc(Cn2nc(-c3ccc(OC(F)F)cc3)ccc2=O)[nH]1 [Compound 224, 6-(4-(difluoromethoxy)phenyl)-2-((5-methyl-1H-imidazol-2-yl)methyl)pyridazin-3(2H)-one]",> 100
4,"O=c1ccc(-c2ccc(OC(F)F)cc2)nn1Cc1ccncn1 [Compound 225, 6-(4-(difluoromethoxy)phenyl)-2-(pyrimidin-4-ylmethyl)pyridazin-3(2H)-one]",> 100
5,"O=c1ccc(-c2ccc(OC(F)F)cc2)nn1Cc1nccn1CC(F)(F)F [Compound 226, 6-(4-(difluoromethoxy)phenyl)-2-((1-(2,2,2-trifluoroethyl)-1H-imidazol-2-yl)methyl)pyridazin-3(2H)-one]",> 100
6,"Cc1nnc(Cn2nc(-c3ccc(OC(F)F)cc3)ccc2=O)[nH]1 [Compound 227, 6-(4-(difluoromethoxy)phenyl)-2-((5-methyl-4H-1,2,4-triazol-3-yl)methyl)pyridazin-3(2H)-one]",> 100
7,"O=c1ccc(-c2ccc(OC(F)F)cc2)nn1Cc1nnc(C2CC2)[nH]1 [Compound 228, 2-((5-cyclopropyl-4H-1,2,4-triazol-3-yl)methyl)-6-(4-(difluoromethoxy)phenyl)-pyridazin-3(2H)-one]",> 100
8,"O=c1ccc(-c2ccc(OC(F)F)cc2)nn1Cc1nnc(C(F)(F)F)s1 [Compound 229, 6-(4-(difluoromethoxy)phenyl)-2-((5-(trifluoromethyl)-1,3,4-thiadiazol-2-yl)methyl)pyridazin-3(2H)-one]",> 100
9,"O=c1ccc(-c2ccc(OC(F)F)cc2)nn1Cc1nc2ccccc2[nH]1 [Compound 230, 2-((1H-benzo[d]imidazol-2-yl)methyl)-6-(4-(difluoromethoxy)phenyl)-pyridazin-3(2H)-one]",> 100
10,"O=c1ccc(-c2ccc(OC(F)F)cc2)nn1Cc1ncccn1 [Compound 232, 6-(4-(difluoromethoxy)phenyl)-2-(pyrimidin-2-ylmethyl)pyridazin-3(2H)-one]",> 100
11,"O=c1[nH]nc(Cn2nc(-c3ccc(OC(F)F)cc3)ccc2=O)o1 [Compound 234, 5-((3-(4-(difluoromethoxy)phenyl)-6-oxopyridazin-1(6H)-yl)methyl)-1,3,4-oxadiazol-2(3H)-one]",> 100
12,"Nc1nnc(Cn2nc(-c3ccc(OC(F)F)cc3)ccc2=O)o1 [Compound 235, 2-((5-amino-1,3,4-oxadiazol-2-yl)methyl)-6-(4-(difluoromethoxy)phenyl)-pyridazin-3(2H)-one]",> 100
13,"O=c1ccc(-c2ccc(OC(F)F)cc2)nn1Cc1nnc(C(F)(F)F)[nH]1 [Compound 236, 6-(4-(difluoromethoxy)phenyl)-2-((5-(trifluoromethyl)-4H-1,2,4-triazol-3-yl)methyl)pyridazin-3(2H)-one]",> 100
14,"O=c1ccc(-c2ccc(OC(F)F)cc2)nn1Cc1nc(-c2ccccc2)co1 [Compound 237, 6-(4-(difluoromethoxy)phenyl)-2-((4-phenyloxazol-2-yl)methyl)pyridazin-3(2H)-one]",10 to 100
15,"O=c1ccc(-c2ccc(OCC(F)(F)F)cc2)nn1Cc1cncc(F)c1 [Compound 238, 2-((5-fluoropyridin-3-yl)methyl)-6-(4-(2,2,2-trifluoroethoxy)phenyl) pyridazin-3(2H)-one]",< 10
16,"Cc1noc(Cn2nc(-c3ccc4c(c3)OCCCO4)ccc2=O)n1 [Compound 301, 6-(3,4-dihydro-2H-benzo[b][1,4]dioxepin-7-yl)-2-((3-methyl-1,2,4-oxadiazol-5-yl)methyl)pyridazin-3(2H)-one]",> 100

row,SMILES,IC50 [µM]
1,"COC(=O)c1ccc(Cn2nc(-c3ccc(SC)cc3)ccc2=O)o1 [Compound 302, methyl 5-((3-(4-(methylthio)phenyl)-6-oxopyridazin-1(6H)-yl)methyl)furan-2-carboxylate]",10 to 100
2,"CCOc1ccc(-c2ccc(=O)n(Cc3nc(-c4ccccn4)no3)n2)cc1 [Compound 304, 6-(4-ethoxyphenyl)-2-((3-(pyridin-2-yl)-1,2,4-oxadiazol-5-yl)methyl)pyridazin-3(2H)-one]",< 10
3,"COc1ccc(-c2ccc(=O)n(Cc3nc(-c4ccc(OC)cc4)no3)n2)cc1 [Compound 305, 6-(4-methoxyphenyl)-2-((3-(4-methoxyphenyl)-1,2,4-oxadiazol-5 yl)methyl)pyridazin-3(2H)-one]",< 10
4,"COc1ccc(-c2ccc(=O)n(Cc3nc(-c4ccccn4)no3)n2)cc1 [Compound 306, 6-(4-methoxyphenyl)-2-((3-(pyridin-2-yl)-1,2,4-oxadiazol-5-yl)methyl)pyridazin-3(2H)-one]",10 to 100
5,"COc1ccc(-c2ccc(=O)n(Cc3cc(=O)n4ccccc4n3)n2)cc1 [Compound 307, 2-((3-(4-methoxyphenyl)-6-oxopyridazin-1(6H)-yl)methyl)-4H-pyrido[1.2-a]pyrimidin-4-one]",10 to 100
6,"CCOc1ccc(-c2ccc(=O)n(Cc3nc(-c4cccs4)no3)n2)cc1 [Compound 308, 6-(4-ethoxyphenyl)-2-((3-(thiophen-2-yl)-1,2,4-oxadiazol-5-yl)methyl)pyridazin-3(2H)-one]",< 10
7,"COc1ccc(-c2ccc(=O)n(Cc3nc(-c4ccccc4)no3)n2)cc1 [Compound 309, 6-(4-methoxyphenyl)-2-((3-phenyl-1,2,4-oxadiazol-5-yl)methyl)pyridazin-3(2H)-one]",< 10
8,"COc1ccc(-c2ccc(=O)n(Cc3nc(-c4ccc(OC)cc4)no3)n2)cc1 [Compound 310, 6-(4-methoxyphenyl)-2-((3-(4-methoxyphenyl)-1,2,4-oxadiazol-5-yl)methyl)pyridazin-3(2H)-one]",< 10
9,"Cc1ccc(-c2ccc(=O)n(Cc3cc(=O)n4ccccc4n3)n2)cc1 [Compound 311, 2-((6-oxo-3-(p-tolyl)pyridazin-1(6H)-yl)methyl)-4H-pyrido[1,2-a]pyrimidin-4-one]",10 to 100
10,"Cc1ccc(-c2ccc(=O)n(Cc3nc(-c4ccccc4C)no3)n2)cc1 [Compound 312, 6-(p-tolyl)-2-((3-(o-tolyl)-1,2,4-oxadiaxol-5-yl)methyl)pyridazin-3(2H)-one]",< 10
11,"Cc1ccc(-c2noc(Cn3nc(-c4ccc(Cl)cc4)ccc3=O)n2)cc1 [Compound 313, 6-(4-chlorophenyl)-2-((3-(p-tolyl)-1,2,4-oxadiazol-5-yl)methyl)pyridazin-3(2H)-one]",10 to 100
12,"Cc1ccc(-c2ccc(=O)n(Cc3nc(-c4cccc(Cl)c4)no3)n2)cc1 [Compound 314, 2-((3-(3-chlorophenyl)-1,2,4-oxadiazol-5-yl)methyl)-6-(p-tolyl)pyridazin-3(2H)-one]",> 100
13,"COc1ccc(-c2ccc(=O)n(Cc3nc(-c4ccc(OC)cc4)no3)n2)cc1 [Compound 315, 6-(4-methoxyphenyl)-2-((3-(4-methoxyphenyl)-1,2,4-oxadiazol-5-yl)methyl)pyridazin-3(2H)-one]",< 10
14,"Cc1nc(Cn2nc(-c3ccc(Cl)cc3)ccc2=O)no1 [Compound 350, 6-(4-chlorophenyl)-2-((5-methyl-1,2,4-oxadiazol-3-yl)methyl)pyridazin-3(2H)-one]",> 100
15,Cc1ncc(-c2ccc(=O)n(Cc3cncc(F)c3)n2)cn1 [Compound 351],10 to 100
16,"C/C=C\c1ncc(-c2ccc(=O)n(Cc3cncc(F)c3)n2)cn1 [Compound 352, (Z)-2-((5-fluoropyridin-3-yl)methyl)-6-(2-(prop-1-en-1-yl)pyrimidin-5-yl)pyridazin-3(2H)-one]",< 10

# Tested on: zebrafish model of DMD
# Test: not given
# Conditions: embryos from zebrafish model of DMD; cited from earlier work
row,SMILES,Protection from pathological muscle derangement
1,"Cc1ccc(S(=O)(=O)NCc2ccccc2)cc1 [BTS, N-benzyl-p-tolyl-sulfonamide]",protect muscles from pathological muscle derangement
